According to patent publication US6894075B2, “4′-demethyl-4′-O-substituted-1-deoxypodophyllotoxin derivative and geometric isomer thereof, process for the preparation thereof and anti-cancer composition comprising the same” (priority 2000, dated 2005):
Values joined by “and” are separate entries in the source; they are usually repeats but may differ in a detail not shown here. Equal entries are not always repeated. Where two headings read alike, the source gives them in different places.

Experiments:
[1] = Weight change in the period of drug administration; assay type: in vivo, mouse; conditions: for Weight of mouse, Day 1: Day 1 from the cancer cell transplantation; for Weight of mouse, Day 2: Day 2 from the cancer cell transplantation; for Weight of mouse, Day 3: Day 3 from the cancer cell transplantation; for Weight of mouse, Day 4: Day 4 from the cancer cell transplantation; for Weight of mouse, Day 5: Day 5 from the cancer cell transplantation; for Weight of mouse, Day 6: Day 6 from the cancer cell transplantation; for Weight of mouse, Day 7: Day 7 from the cancer cell transplantation; for Weight of mouse, Day 8: Day 8 from the cancer cell transplantation
Method: (§1) Each group includes 5 mice. After 24 hours from the transplantation, each test compound of formulae (1a) and (1b) was dissolved in 4% Tween 80 and injected peritoneally in the amount of 0.2 ml and in a concentration of 0.06 mmole/kg/day (that is, 0.06 mmole of each test compound was dissolved in 10 ml of 4% Tween 80, and then 0.2 ml of the resulting solution was peritoneally injected into a mouse). Only 4% Tween 80 was injected for the negative control group, and the same moles of etoposide (36 mg/kg) was injected for the positive control group. The injection was performed five times at 1, 2, 4, 7 and 8 days from the transplantation of cancer.
As an index of toxicity, the weight change during the period of drug administration was recorded for the compounds of formulae (1a) and (1b) compared with the comparison compound of Etoposide.

A549 cell = assay: Cytotoxicity test (SRB method) for A549 cells; assay type: cell-based, human; conditions: for EC50: read-out: ED50(nM) for A549; for cytotoxicity compared with DPT: A549, in words
Procedure, shortened: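 SRB assay: cells seeded 24 h at 37 °C, then exposed 48 h to samples at 0.1, 0.03, 0.01 and 0.003 mg/ml final. TCA-fixed, SRB-stained, OD read at 520 nm. Growth is calculated against time-zero and untreated controls, and ED50 is the concentration giving 50% growth inhibition, obtained by regression.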

[2] = tested on: Lewis Lung Cancer Cell (LLC); assay: Anti-cancer test for BDF1 mouse transplanted by Lewis Lung Cancer Cell, Experiment 2-1 (formulae 1a, 1b); assay type: in vivo; conditions: peritoneal injection 0.06 mmole/kg/day at days 1, 2, 4, 7, 8 (etoposide 36 mg/kg), cancer volume at 14 to 16 days
From the text: In order to evaluate the anti-cancer activity of the compounds of the present invention, LLC, which is a lung cancer cell of mouse, was transplanted into the hypodermic region of BDF1 mouse to induce a solid cancer. […] Experiment for the compounds of formulae (1a) and (1b) and that for the compound of formula (1c) were separately carried out.
Male BDF1 mouse (Weight 18 to 25 g), being in good health and purchased from Korea Biolink Co., was used as a test animal.
The mice were bred at a place controlled to the temperature of 23 to 24° C. while provided with water and feed ad libitum. As the feed, feed for mouse containing no antibiotics was used. The hypodermic tissue of C57BL/6 mouse, which includes cells cultured therein for 14 days, was taken up. Sterilized cold physiological saline was added to the tissue in the amount of 5 ml/g tissue to make a cell suspension. This cell suspension of 0.2 ml was transplanted into the hypodermic region of armpit of BDF1 mouse.
as §1
The anti-cancer effect was determined by measuring the volume of cancer of the control and test groups at 14 to 16 days from the administration of drugs and then calculated as follows. Volume of Cancer(mm^3)=Length(mm)×Width^2(mm^2)/2 Suppression Rate of Cancer Growth(%)=(C−T)×100(%)/C in which • C represents the average volume of cancer (mm^3) of the control group, and • T represents the average volume of cancer (mm^3) of the test group.

[3] = tested on: mouse leukemia cell line L1210; conditions: L1210 transplanted into CDF1 mouse, compared with the negative control (Terada et al. 1992); cited from earlier work
[4] = A549 human lung cancer cell, SRB, 48 hours incubation

SMILES: COc1cc(C2c3cc4c(cc3CC3COC(=O)C32)OCO4)cc(OC)c1OC(=O)CCCCN (stereo not shown) [Compound 1a-12, 4′-demethyl-4′-O-(5-aminopentanoyl)-1-deoxypodophyllotoxin]
- Weight of mouse, Day 1 [1]: 22.8 g
- Weight of mouse, Day 2 [1]: 24.2 g
- Weight of mouse, Day 3 [1]: 25 g
- Weight of mouse, Day 4 [1]: 25.4 g
- Weight of mouse, Day 5 [1]: 24.8 g
- Weight of mouse, Day 6 [1]: 26 g
- Weight of mouse, Day 7 [1]: 25.8 g
- Weight of mouse, Day 8 [1]: 26.2 g
- EC50 (A549 cell; [4]): 90.3 nM
- Suppression Rate for LLC [2]: 82%

SMILES: COc1cc(C2c3cc4c(cc3CC3COC(=O)C32)OCO4)cc(OC)c1OC(=O)CCCCCCN (stereo not shown) [Compound 1a-14, 4′-demethyl-4′-O-(7-aminoheptanoyl)-1-deoxypodophyllotoxin]
- Weight of mouse, Day 1 [1]: 23 g
- Weight of mouse, Day 2 [1]: 23.8 g
- Weight of mouse, Day 3 [1]: 21.6 g
- Weight of mouse, Day 4 [1]: 26 g
- Weight of mouse, Day 5 [1]: 22.3 g
- Weight of mouse, Day 6 [1]: 22.8 g
- Weight of mouse, Day 7 [1]: 22.8 g
- Weight of mouse, Day 8 [1]: 22.5 g
- weight loss ([1]; compared with the control group, 8 days): about 0.5 g/mouse
- EC50 (A549 cell; [4]): 79.6 nM
- Suppression Rate for LLC [2]: 90%

SMILES: COc1cc(C2c3cc4c(cc3CC3COC(=O)C32)OCO4)cc(OC)c1OC(=O)CCN (stereo not shown) [Compound 1a-10, 4′-demethyl-4′-O-(3-aminopropanoyl)-1-deoxypodophyllotoxin]
- Weight of mouse, Day 1 [1]: 22.9 g
- Weight of mouse, Day 2 [1]: 24.1 g
- Weight of mouse, Day 3 [1]: 25 g
- Weight of mouse, Day 4 [1]: 25.1 g
- Weight of mouse, Day 5 [1]: 25.5 g
- Weight of mouse, Day 6 [1]: 25.3 g
- Weight of mouse, Day 7 [1]: 25 g
- Weight of mouse, Day 8 [1]: 25.3 g
- EC50 (A549 cell; [4]): 96.7 nM
- Suppression Rate for LLC [2]: 78%

SMILES: COc1cc(C2c3cc4c(cc3CC3COC(=O)C32)OCO4)cc(OC)c1OC(=O)C(N)CC(C)C (stereo not shown) [Compound 1a-2, 4′-demethyl-4′-O-leucinoyl-1-deoxypodophyllotoxin]
- Weight of mouse, Day 1 [1]: 23.3 g
- Weight of mouse, Day 2 [1]: 24.3 g
- Weight of mouse, Day 3 [1]: 25 g
- Weight of mouse, Day 4 [1]: 26.1 g
- Weight of mouse, Day 5 [1]: 26 g
- Weight of mouse, Day 6 [1]: 25 g
- Weight of mouse, Day 7 [1]: 25.3 g
- Weight of mouse, Day 8 [1]: 26.1 g
- cytotoxicity compared with DPT (A549 cell): stronger cytotoxicity than DPT
- EC50 (A549 cell; [4]): 68 nM
- Suppression Rate for LLC [2]: 88%

SMILES: COc1cc(C2c3cc4c(cc3CC3COC(=O)C32)OCO4)cc(OC)c1OC(=O)CCCN (stereo not shown) [Compound 1a-11, 4′-demethyl-4′-O-(4-aminobutanoyl)-1-deoxypodophyllotoxin]
- Weight of mouse, Day 1 [1]: 22.8 g
- Weight of mouse, Day 2 [1]: 24 g
- Weight of mouse, Day 3 [1]: 24.2 g
- Weight of mouse, Day 4 [1]: 25 g
- Weight of mouse, Day 5 [1]: 24.4 g
- Weight of mouse, Day 6 [1]: 25.4 g
- Weight of mouse, Day 7 [1]: 25.4 g
- Weight of mouse, Day 8 [1]: 25.5 g
- EC50 (A549 cell; [4]): 91.6 nM
- Suppression Rate for LLC [2]: 82%

SMILES: COc1cc(C2c3cc4c(cc3CC3COC(=O)C32)OCO4)cc(OC)c1OC(=O)NCCCl (stereo not shown) [Compound 1b-3, 4′-demethyl-4′-O-(2-chloroethylcarbamoyl)-1-deoxypodophyllotoxin]
- Weight of mouse, Day 1 [1]: 23.3 g
- Weight of mouse, Day 2 [1]: 23 g
- Weight of mouse, Day 3 [1]: 23.6 g
- Weight of mouse, Day 4 [1]: 24.5 g
- Weight of mouse, Day 5 [1]: 26 g
- Weight of mouse, Day 6 [1]: 25 g
- Weight of mouse, Day 7 [1]: 26 g
- Weight of mouse, Day 8 [1]: 25.8 g
- EC50 (A549 cell; [4]): 92 nM
- Suppression Rate for LLC [2]: 75%

SMILES: COc1cc(C2c3cc4c(cc3CC3COC(=O)C32)OCO4)cc(OC)c1OC(=O)NC1CCCCC1 (stereo not shown) [Compound 1b-4, 4′-demethyl-4′-O-cyclohexylcarbamoyl-1-deoxypodophyllotoxin]
- Weight of mouse, Day 1 [1]: 23 g
- Weight of mouse, Day 2 [1]: 23.9 g
- Weight of mouse, Day 3 [1]: 25 g
- Weight of mouse, Day 4 [1]: 26 g
- Weight of mouse, Day 5 [1]: 25 g
- Weight of mouse, Day 6 [1]: 26 g
- Weight of mouse, Day 7 [1]: 26 g
- Weight of mouse, Day 8 [1]: 25.5 g
- EC50 (A549 cell; [4]): 163 nM
- Suppression Rate for LLC [2]: 88%

SMILES: COc1cc([C@@H]2c3cc4c(cc3C[C@H]3COC(=O)[C@@H]32)OCO4)cc(OC)c1OC [DPT, Deoxypodophyllotoxin]
- Weight of mouse, Day 1 [1]: 23.1 g
- Weight of mouse, Day 2 [1]: 23.9 g
- Weight of mouse, Day 3 [1]: 24 g
- Weight of mouse, Day 4 [1]: 24 g
- Weight of mouse, Day 5 [1]: 24.4 g
- Weight of mouse, Day 6 [1]: 25 g
- Weight of mouse, Day 7 [1]: 25 g
- Weight of mouse, Day 8 [1]: 24.9 g
- extension effect of life span [3]: about 12%
- EC50 (A549 cell; Homo sapiens, A549, 48 h): 75.5 nM
- Suppression Rate for LLC [2]: 60% and 60.2%

SMILES: COc1cc(C2c3cc4c(cc3CC3COC(=O)C32)OCO4)cc(OC)c1OC(=O)NCCO (stereo not shown) [Compound 1b-5, 4′-demethyl-4′-O-(2-hydroxyethyl)carbamoyl-1-deoxypodophyllotoxin]
- Weight of mouse, Day 1 [1]: 23.4 g
- Weight of mouse, Day 2 [1]: 23.8 g
- Weight of mouse, Day 3 [1]: 22.2 g
- Weight of mouse, Day 4 [1]: 23.8 g
- Weight of mouse, Day 5 [1]: 23.4 g
- Weight of mouse, Day 6 [1]: 23.8 g
- Weight of mouse, Day 7 [1]: 23 g
- Weight of mouse, Day 8 [1]: 23.2 g
- cytotoxicity compared with DPT (A549 cell): stronger cytotoxicity than DPT
- EC50 (A549 cell; [4]): 61.5 nM
- Suppression Rate for LLC [2]: 95.1%
